Reference: US9822110B2, “Sulfonamide derivative and pharmaceutical use thereof” (EA Pharma Co., Ltd., priority 2013, dated 2017)
pIC50: −log10 of the molar value.

Molecular target: T1, MAdCAM-1/α4β7 integrin (Homo sapiens, UniProt P13612+P26010)
T1 construct: a human B-cell line known to express α4β7 integrin; endogenous in cells; host or cells: RPMI-8866 (human B-cell line)
T1 sequence (P13612 34-1032): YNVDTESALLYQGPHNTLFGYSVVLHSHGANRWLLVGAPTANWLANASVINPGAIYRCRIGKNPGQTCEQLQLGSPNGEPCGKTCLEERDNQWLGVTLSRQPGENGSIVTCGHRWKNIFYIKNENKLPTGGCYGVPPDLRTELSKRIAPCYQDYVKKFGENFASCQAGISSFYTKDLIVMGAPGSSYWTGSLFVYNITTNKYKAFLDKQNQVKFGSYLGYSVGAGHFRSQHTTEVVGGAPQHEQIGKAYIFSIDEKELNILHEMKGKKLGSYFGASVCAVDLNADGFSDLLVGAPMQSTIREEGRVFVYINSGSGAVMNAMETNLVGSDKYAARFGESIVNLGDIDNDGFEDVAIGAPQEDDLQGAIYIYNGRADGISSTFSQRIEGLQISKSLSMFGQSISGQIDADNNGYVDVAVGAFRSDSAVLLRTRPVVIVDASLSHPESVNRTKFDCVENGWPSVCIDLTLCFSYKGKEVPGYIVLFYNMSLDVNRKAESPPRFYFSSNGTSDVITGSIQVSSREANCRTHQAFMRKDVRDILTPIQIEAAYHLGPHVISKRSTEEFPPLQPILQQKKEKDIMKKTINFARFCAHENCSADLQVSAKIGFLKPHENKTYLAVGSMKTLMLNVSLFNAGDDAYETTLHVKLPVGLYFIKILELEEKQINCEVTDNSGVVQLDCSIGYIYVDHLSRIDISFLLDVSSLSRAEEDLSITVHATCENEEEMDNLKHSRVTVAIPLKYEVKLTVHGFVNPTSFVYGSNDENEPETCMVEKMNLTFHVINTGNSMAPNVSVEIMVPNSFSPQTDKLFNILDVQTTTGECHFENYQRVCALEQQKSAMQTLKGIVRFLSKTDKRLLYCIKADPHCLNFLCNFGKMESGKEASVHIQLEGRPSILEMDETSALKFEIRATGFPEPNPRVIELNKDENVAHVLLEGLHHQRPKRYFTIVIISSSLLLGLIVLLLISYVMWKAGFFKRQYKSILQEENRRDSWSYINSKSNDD
T1 sequence (P26010 20-798): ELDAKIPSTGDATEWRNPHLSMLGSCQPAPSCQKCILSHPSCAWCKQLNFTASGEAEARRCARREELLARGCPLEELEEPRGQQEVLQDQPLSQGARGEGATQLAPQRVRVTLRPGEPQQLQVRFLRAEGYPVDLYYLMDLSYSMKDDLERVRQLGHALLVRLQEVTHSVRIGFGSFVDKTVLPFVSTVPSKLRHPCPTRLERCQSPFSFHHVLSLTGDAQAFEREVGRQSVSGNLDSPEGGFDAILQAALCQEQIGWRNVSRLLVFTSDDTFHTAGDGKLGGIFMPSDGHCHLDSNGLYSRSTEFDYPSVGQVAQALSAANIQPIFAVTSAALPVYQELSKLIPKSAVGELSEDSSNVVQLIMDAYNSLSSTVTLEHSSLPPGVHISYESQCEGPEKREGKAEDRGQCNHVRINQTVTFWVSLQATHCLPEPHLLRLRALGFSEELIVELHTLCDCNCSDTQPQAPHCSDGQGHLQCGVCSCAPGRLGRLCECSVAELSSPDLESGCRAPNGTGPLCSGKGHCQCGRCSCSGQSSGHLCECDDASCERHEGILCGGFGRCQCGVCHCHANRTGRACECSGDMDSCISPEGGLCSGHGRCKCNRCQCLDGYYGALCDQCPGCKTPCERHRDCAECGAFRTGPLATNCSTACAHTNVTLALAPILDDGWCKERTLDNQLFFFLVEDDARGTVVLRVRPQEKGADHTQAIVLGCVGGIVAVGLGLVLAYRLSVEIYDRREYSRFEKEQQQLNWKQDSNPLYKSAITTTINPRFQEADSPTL
Experiment: Evaluation test (1) for MAdCAM-1/α4β7 integrin binding inhibitory activity in the presence of serum (RPMI-8866 cell binding to MAdCAM-1/Fc)
Format: cell-based
Settings: RPMI-8866 cells, recombinant mouse MAdCAM-1/Fc, human serum at final concentration of 50%; read-out: α4β7 Serum Activity rank when α4β7 serum was added
Method: The selectivity was determined by dividing the IC50 value in the evaluation test for VCAM-1/α4β1 integrin binding inhibitory activity by the IC50 value in the evaluation test for MAdCAM-1/α4β7 integrin binding inhibitory activity. • (3) Evaluation Test (1) for MAdCAM-1/α4β7 Integrin Binding Inhibitory Activity in the Presence of Serum
The ability of test substances to inhibit the binding of RPMI-8866 cell line, a human B-cell line known to express α4β7 integrin, to MAdCAM-1 was examined.
A 96-well microtiter plate was coated overnight at 4° C. with a recombinant mouse MAdCAM-1/Fc (R&D systems) solution diluted with the buffer A (carbonate buffer, pH 9.6). After washing once with PBS, 150 μL/well of Block Ace (manufactured by Snow Brand Milk Products Co., Ltd.) was added, and it was incubated at room temperature for 2 hours. After removal, it was washed once with PBS.
100 μL of each of test substances and RPMI-8866 cells diluted with a binding buffer solution (DMEM containing 40 mM HEPES, 0.2% BSA, and 4 mM MnCl2) to various concentrations was added to the plate coated with MAdCAM-1/Fc, so that human serum was contained at a final concentration of 50%, and it was incubated at 30° C. for 15 minutes to 60 minutes. After the cells were bound to the wells, unbound cells were removed by washing with PBS. 50 μL/well of the buffer solution C (PBS containing 1.5% Triton X-100) was added to the plate to dissolve the bound RPMI-8866 cells. 30 μL of substrate buffer (Promega, CytoTox 96 Non-Radioactive Cytotoxicity Assay) was added to 30 μL of a cell lysate to allow a reaction for 30 minutes at room temperature in a dark place. 30 μL of stop solution (Promega, CytoTox 96 Non-Radioactive Cytotoxicity Assay) was added thereto to determine the absorbance at 490 nm using a plate reader. The absorbance was obtained herein by detecting the activity of lactate dehydrogenase (LDH) eluted in a supernatant of each well, that is, the absorbance is proportional to the number of RPMI-8866 cells remaining on the plate by being bound to MAdCAM-1. The test was duplicated, and the cell binding rate at various concentrations with the absorbance of the well containing no test substance being taken as 100% was determined, to calculate the concentration IC50 at which 50% of binding was inhibited.

Row | pIC50 | Compound
1 | < 6.70 | CC(C)OCc1ncc(-c2ccc(S(=O)(=O)Nc3cc(F)c(C(=O)N[C@@H](Cc4ccc(-n5c(=O)c6cncnc6n(C)c5=O)cn4)C(=O)O)cc3F)cc2)cn1 [Example 43, (2S)-2-[[2,5-Difluoro-4-[[4-[2-(isopropoxymethyl)pyrimidin-5-yl]phenyl]sulfonylamino]benzoyl]amino]-3-[5-(1-methyl-2,4-dioxo-pyrimido[4,5-d]pyrimidin-3-yl)-2-pyridyl]propanoic acid]
2 | 6.70 to 7.30 | COCc1cn(-c2ccc(S(=O)(=O)Nc3cc(F)c(C(=O)N[C@@H](Cc4ccc(-n5c(=O)c6ccncc6n(C)c5=O)cn4)C(=O)O)cc3F)cc2)nn1 [Example 29, (2S)-2-[[2,5-Difluoro-4-[[4-[4-(methoxymethyl)triazol-1-yl]phenyl]sulfonylamino]benzoyl]amino]-3-[5-(1-methyl-2,4-dioxo-pyrido[3,4-d]pyrimidin-3-yl)-2-pyridyl]propanoic acid]
3 | 6.70 to 7.30 | CC(C)OCc1ncc(-c2ccc(S(=O)(=O)Nc3cc(F)c(C(=O)N[C@@H](Cc4ccc(-n5c(=O)cc(C(F)(F)F)n(C)c5=O)cc4)C(=O)O)cc3F)cc2)cn1 [Example 44, (2S)-2-[[2,5-Difluoro-4-[[4-[2-(isopropoxymethyl)pyrimidin-5-yl]phenyl]sulfonylamino]benzoyl]amino]-3-[4-[3-methyl-2,6-dioxo-4-(trifluoromethyl)pyrimidin-1-yl]phenyl]propanoic acid]
4 | 6.70 to 7.30 | Cc1c(-c2ccc(C[C@H](NC(=O)c3cc(F)c(NS(=O)(=O)c4ccc(-c5cnc(N6CCC6)nc5)cc4)cc3F)C(=O)O)cc2)c(=O)n(C)c(=O)n1C [Example 36, (2S)-2-[[4-[[4-[2-(Azetidin-1-yl)pyrimidin-5-yl]phenyl]sulfonylamino]-2,5-difluoro-benzoyl]amino]-3-[4-(1,3,4-trimethyl-2,6-dioxo-pyrimidin-5-yl)phenyl]propanoic acid]
5 | 7.30 to 8.00 | COCc1ncc(-c2ccc(S(=O)(=O)Nc3cc(F)c(C(=O)N[C@@H](Cc4ccc(-n5c(=O)c6ccncc6n(C)c5=O)cn4)C(=O)O)cc3F)cc2)cn1 [Example 28, (2S)-2-[[2,5-Difluoro-4-[[4-[2-(methoxymethyl)pyrimidin-5-yl]phenyl]sulfonylamino]benzoyl]amino]-3-[5-(1-methyl-2,4-dioxo-pyrido[3,4-d]pyrimidin-3-yl)-2-pyridyl]propanoic acid]

Further lines, the compound ahead of its results:

Row | Compound | pIC50
6 | Cn1c(=O)n(-c2ccc(C[C@H](NC(=O)c3cc(F)c(NS(=O)(=O)c4ccc(-c5cnc(C6CCOCC6)nc5)cc4)cc3F)C(=O)O)nc2)c(=O)c2ccncc21 [Example 27, (2S)-2-[[2,5-Difluoro-4-[[4-(2-tetrahydropyran-4-ylpyrimidin-5-yl)phenyl]sulfonylamino]benzoyl]amino]-3-[5-(1-methyl-2,4-dioxo-pyrido[3,4-d]pyrimidin-3-yl)-2-pyridyl]propionic acid] | 6.70 to 7.30
7 | Cc1c(-c2ccc(C[C@H](NC(=O)c3cc(F)c(NS(=O)(=O)c4ccco4)cc3F)C(=O)O)cc2)c(=O)n(C)c(=O)n1C [Example 38, (2S)-2-[[2,5-Difluoro-4-(2-furylsulfonylamino)benzoyl]amino]-3-[4-(1,3,4-trimethyl-2,6-dioxo-pyrimidin-5-yl)phenyl]propanoic acid] | 7.30 to 8.00
8 | COCc1ncc(-c2ccc(S(=O)(=O)Nc3cc(F)c(C(=O)N[C@@H](Cc4ccc(-n5c(=O)c6ccncc6n(C)c5=O)nc4)C(=O)O)cc3F)cc2)cn1 [Example 51, (2S)-2-[[2,5-Difluoro-4-[[4-[2-(methoxymethyl)pyrimidin-5-yl]phenyl]sulfonylamino]benzoyl]amino]-3-[6-(1-methyl-2,4-dioxo-pyrido[3,4-d]pyrimidin-3-yl)-3-pyridyl]propanoic acid] | 7.30 to 8.00
9 | Cc1c(-c2ccc(C[C@H](NC(=O)c3cc(F)c(NS(=O)(=O)c4ccc(-c5cnc(C6CCOCC6)nc5)cc4)cc3F)C(=O)O)nc2)c(=O)n(C)c(=O)n1C [Example 89, (2S)-2-[[2,5-Difluoro-4-[[4-(2-tetrahydropyran-4-ylpyrimidin-5-yl)phenyl]sulfonylamino]benzoyl]amino]-3-[5-(1,3,4-trimethyl-2,6-dioxopyrimidin-5-yl)-2-pyridyl]propanoic acid] | < 6.70
10 | C=CCn1cc(-c2ccc(S(=O)(=O)Nc3cc(F)c(C(=O)N[C@@H](Cc4ccc(-n5c(=O)c6ccncc6n(C)c5=O)cn4)C(=O)O)cc3F)cc2)cnc1=O [Example 30, (2S)-2-[[4-[[4-(1-Allyl-2-oxo-pyrimidin-5-yl)phenyl]sulfonylamino]-2,5-difluoro-benzoyl]amino]-3-[5-(1-methyl-2,4-dioxo-pyrido[3,4-d]pyrimidin-3-yl)-2-pyridyl]propanoic acid] | 7.30 to 8.00
11 | CC(C)OCc1ncc(-c2ccc(S(=O)(=O)Nc3cc(F)c(C(=O)N[C@@H](Cc4ccc(-n5c(=O)c6ccncc6n(C)c5=O)cc4)C(=O)O)cc3F)cc2)cn1 [Example 85] | 7.30 to 8.00
12 | Cc1cn(-c2ccc(S(=O)(=O)Nc3cc(F)c(C(=O)N[C@@H](Cc4ccc(-c5c(C)n(C)c(=O)n(C)c5=O)cc4)C(=O)O)cc3F)nc2)nn1 [Example 37, (2S)-2-[[2,5-Difluoro-4-[[5-(4-methyltriazol-1-yl)-2-pyridyl]sulfonylamino]benzoyl]amino]-3-[4-(1,3,4-trimethyl-2,6-dioxo-pyrimidin-5-yl)phenyl]propanoic acid] | 7.30 to 8.00
